Measurements as given in US20150307614A1, “Enhanced immunological responses” (Duke University, priority 2009, published 2015).

How the values were obtained:
OVA-specific T-cells = test: Antigen-specific vaccination after TMZ-induced lymphopenia in mice, with or without anti-IL-2Rα; format: in vivo; conditions: TMZ pre-treatment
Description: (§1) It also induces transient, Grade 3 lymphopenia (<500 cells/uL) in 70% of patients with GBM after the first cycle (150-200 mg/m2/5 d) with nadirs occurring 14-21 days after treatment (n=10). TMZ treatment also leads to an increase in the proportion of TRegs in the peripheral blood (unpublished). Despite this, we have been able to induce and maintain potent EGFRvIII-specific humoral and cellular immune responses in patients with GBM receiving TMZ. Thus, we evaluated TMZ for its capacity to induce homeostatic proliferation and to enhance antigen-specific immune responses in a murine model. Markedly elevated levels of antigen-specific T-cells could be achieved and maintained in mice receiving antigen-specific vaccination after TMZ-induced lymphopenia when compared to normal hosts.

[1] = TMZ-induced lymphopenia in patients with GBM; format: in vivo, human; conditions: after the first cycle (150-200 mg/m2/5 d), n=10
Description: as §1

[2] = test system: newly-diagnosed, EGFRvIII+ GBM
Description: In patients with newly-diagnosed, EGFRvIII+ GBM, after resection and radiation/TMZ, patients received CDX-110 vaccinations biweekly×3, then monthly until tumor progression in combination with TMZ (200 mg/m^2×5/28 days). […] The others received saline in a double-blinded fashion.

human TRegs = test: Daclizumab on human TRegs in vitro; format: cell-based
[3] = after expansion post vaccination

Row | Compound | OVA-specific T-cells, frequency of circulating CD8+ T-cells (OVA-specific T-cells; 4 weeks post-vaccination) [%] | OVA-specific T-cells, absolute count after vaccination (OVA-specific T-cells; [3]) [cells/uL] | OVA-specific T-cells, frequency of circulating CD8+ T-cells after vaccination (OVA-specific T-cells; [3]) [%] | OVA-specific T-cells, absolute count, start of expansion (OVA-specific T-cells; starting count) [cells/uL blood] | OVA-specific T-cells, frequency of circulating CD8+ T-cells, start of expansion (OVA-specific T-cells; starting frequency) [%] | patients with transient Grade 3 lymphopenia (<500 cells/uL) [1] [%] | time of lymphopenia nadirs after treatment [1] [days] | OS (overall survival) ([2]; both arms) | TTP (time to progression) ([2]; both arms) | overall CD8+ or CD4+ T-cell counts ([2]; daclizumab 1 mg/Kg×1, preliminary analysis n=4) | EGFRvIII-specific immune responses ([2]; daclizumab arm, preliminary analysis n=4, p=0.01 t-test) | titer of cytotoxic EGFRvIII-specific IgG1 isotype antibodies ([2]; human, in vivo) | Treg (CD4+CD25+CD45RO+FOXP3+) numbers, change from baseline ([2]; reduction, daclizumab 1 mg/Kg×1 at first vaccine, preliminary analysis n=4, p=0.011 t-test) [%] | effector T-cell function (human TRegs; in vitro) | human TRegs (human TRegs; in vitro) | CD4+ T-cell responses (human TRegs; preliminary in vitro studies with human TRegs in the presence of daclizumab)
1 | Cn1nnc2c(C(N)=O)ncn2c1=O [TMZ, temozolomide] | 21.18 | 42.61 | 10.64 | 3.41 | 0.40 | 70 | 14 to 21 |  |  |  |  |  |  |  |  | 
2 | daclizumab: commercially available humanized IL-2Rα-specific antibody |  |  |  |  |  |  |  | has not been reached | has not been reached | without reducing | enhanced | enhanced | 82.4±7.1 | increase | reduction | enhancement
